Measurements as given in patent publication US11109593B2, “Isoxazolin-5-one derivative and herbicide containing same as active ingredient” (HOKKO CHEMICAL INDUSTRY CO., LTD., priority 2017, dated 2021).

What was measured:
Type in all cases: in vivo
[1] = system: Echinochloa crus-galli; experiment: Test Example 1: herbicidal effect test by treatment of rice paddy soil (immediately after seeding); settings: 120 g/10a active ingredient, dry weight vs untreated area, 14 days after treatment
Method in brief: (§1)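 Paddy soil in pots with compound fertilizer, puddled; 30 seeds per species sown at 0–1 cm, flooded ~3 cm, greenhouse. Water-diluted emulsions dropped onto water immediately after seeding at 120 g active ingredient per 10 ares, duplicate. Herbicidal rate (%) from plant dry weight versus untreated, 14 days after treatment.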

[2] = system: Scirpus juncoides; experiment: as above; settings: 120 g/10a active ingredient, dry weight vs untreated area, 14 days after treatment
Method in brief: as §1

[3] = system: broad leaf weeds (Lindernia pyxidaria and Monochoria vaginalis); experiment: as above; settings: 120 g/10a active ingredient, dry weight vs untreated area, 14 days after treatment
Method in brief: as §1

[4] = system: Echinochloa crus-galli; experiment: Test Example 2: herbicidal effect test by treatment during growing period in paddy rice cultivation (seven days after seeding); settings: 120 g/10a active ingredient, assessed 14 days after treatment, dry weight vs untreated area
Method in brief: (§2)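 Greenhouse flooded-pot test, seeds sown in puddled paddy soil; emulsion applied into water 7 d after seeding, 120 g a.i./10 a. Dry-weight-based herbicidal rate at 14 d, n=2.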

[5] = system: Scirpus juncoides; experiment: as above; settings: 120 g/10a active ingredient, assessed 14 days after treatment, dry weight vs untreated area
Method in brief: as §2

[6] = system: broad leaf weeds (Lindernia pyxidaria and Monochoria vaginalis); experiment: as above; settings: 120 g/10a active ingredient, assessed 14 days after treatment, dry weight vs untreated area
Method in brief: as §2

[7] = system: Amaranthus viridis; experiment: Test Example 3: herbicidal effect test by treatment of dry field farming soil (one day after seeding); settings: 120 g/10a active ingredient, evaluated 14 days after treatment
Method in brief: (§3)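 Compound emulsions are sprayed on the soil surface one day after sowing (120 g a.i. per 10 ares) before weeds emerge. Effect is expressed as percent dry-weight reduction versus untreated controls 14 days post-treatment.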

[8] = system: Chenopodium album; experiment: as above; settings: 120 g/10a active ingredient, evaluated 14 days after treatment
Method in brief: as §3

[9] = system: Echinochloa crus-galli; experiment: as above; settings: 120 g/10a active ingredient, evaluated 14 days after treatment
Method in brief: as §3

[10] = system: southern crabgrass; experiment: as above; settings: 120 g/10a active ingredient, evaluated 14 days after treatment
Method in brief: as §3

[11] = system: Amaranthus viridis; experiment: Test Example 4: herbicidal effect test by treatment of leave and stem in dry field farming (seven days after seeding); settings: 120 g/10a active ingredient; emulsion sprayed seven days after seeding; evaluated 14 days after treatment
Method in brief: (§4)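 Duplicate pots were scored 14 days post-spray by dry weight, herbicidal rate = {1 − treated/untreated average dry weight} × 100. The water-diluted emulsion, equivalent to 120 g active ingredient per 10 ares in 100 L, was applied seven days after sowing 20 seeds each into the upper 1 cm of alluvial soil.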

[12] = system: Chenopodium album; experiment: as above; settings: 120 g/10a active ingredient; emulsion sprayed seven days after seeding; evaluated 14 days after treatment
Method in brief: as §4

[13] = system: Echinochloa crus-galli; experiment: as above; settings: 120 g/10a active ingredient; emulsion sprayed seven days after seeding; evaluated 14 days after treatment
Method in brief: as §4

[14] = system: southern crabgrass; experiment: as above; settings: 120 g/10a active ingredient; emulsion sprayed seven days after seeding; evaluated 14 days after treatment
Method in brief: as §4

Compound | Herbicidal rate (%) Echinochloa crus-galli [1] [%] | Herbicidal rate (%) Scirpus juncoides [2] [%] | Herbicidal rate (%) Lindernia pyxidaria [3] [%] | Herbicidal rate (%) Monochoria vaginalis [3] [%] | Herbicidal rate (%) Echinochloa crus-galli [4] [%] | Herbicidal rate (%) Scirpus juncoides [5] [%] | Herbicidal rate (%) Lindernia pyxidaria [6] [%] | Herbicidal rate (%) Monochoria vaginalis [6] [%] | herbicidal rate, Amaranthus viridis [7] [%] | herbicidal rate, Chenopodium album [8] [%] | herbicidal rate, Echinochloa crus-galli [9] [%] | herbicidal rate, southern crabgrass [10] [%] | herbicidal effect (herbicidal rate), Amaranthus viridis [11] [%] | herbicidal effect (herbicidal rate), Chenopodium album [12] [%] | herbicidal effect (herbicidal rate), Echinochloa crus-galli [13] [%] | herbicidal effect (herbicidal rate), southern crabgrass [14] [%]
CCC(=O)N(c1ccccc1Cc1c(C)n(C(C)(C)C)oc1=O)S(=O)(=O)C(F)(F)F [Compound 1-315] | 90 | 90 | 90 | 90 | 90 | 90 | 90 | 90 | 90 | 90 | 90 | 90 | 40 | 40 | 90 | 90
CCC(=O)N(c1ccccc1Cc1c(C)n(C(C)CC)oc1=O)S(=O)(=O)C(F)(F)F (stereo not drawn) [Compound 1-316] | 90 | 90 | 90 | 90 | 90 | 90 | 90 | 90 | 90 | 90 | 90 | 90 | 40 | 40 | 90 | 90
CCC(=O)N(c1ccccc1Cc1c(C)n(CC(C)(C)C)oc1=O)S(=O)(=O)C(F)(F)F [Compound 1-318] | 90 | 90 | 90 | 90 | 90 | 90 | 90 | 90 | 90 | 90 | 90 | 90 | 40 | 40 | 90 | 90
CCC(=O)N(c1ccccc1Cc1c(C)n(C(C)COC)oc1=O)S(=O)(=O)C(F)(F)F (stereo not drawn) [Compound 1-319] | 90 | 90 | 90 | 90 | 90 | 90 | 90 | 90 | 90 | 90 | 90 | 90 | 40 | 40 | 90 | 90
CCC(=O)N(c1ccccc1Cc1c(C)n(CCSC)oc1=O)S(=O)(=O)C(F)(F)F [Compound 1-320] | 90 | 90 | 90 | 90 | 90 | 90 | 90 | 90 | 90 | 90 | 90 | 90 | 40 | 40 | 90 | 90
CCC(=O)N(c1ccccc1Cc1c(C)n(C(C)c2ccccc2)oc1=O)S(=O)(=O)C(F)(F)F (stereo not drawn) [Compound 1-321] | 90 | 90 | 90 | 90 | 90 | 90 | 90 | 90 | 90 | 90 | 90 | 90 | 40 | 40 | 90 | 90
Cc1c(Cc2ccccc2N(C(=O)C(C)C)S(=O)(=O)C(F)(F)F)c(=O)on1C(C)(C)C [Compound 1-329] | 90 | 90 | 90 | 90 | 90 | 90 | 90 | 90 | 90 | 90 | 90 | 90 | 40 | 40 | 90 | 90
CCC(C)n1oc(=O)c(Cc2ccccc2N(C(=O)C(C)C)S(=O)(=O)C(F)(F)F)c1C (stereo not drawn) [Compound 1-330] | 90 | 90 | 90 | 90 | 90 | 90 | 90 | 90 | 90 | 90 | 90 | 90 | 40 | 40 | 90 | 90
CCC(CC)n1oc(=O)c(Cc2ccccc2N(C(=O)C(C)C)S(=O)(=O)C(F)(F)F)c1C [Compound 1-331] | 90 | 90 | 90 | 90 | 90 | 90 | 90 | 90 | 90 | 90 | 90 | 90 | 40 | 40 | 90 | 90
